Laboratory results as given in PubChem BioAssay AID651745 (NMMLSC, 2012).
Calls of active or inactive are those of the source.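 How the source made its calls: active means GFP positive cell share at least 15% at top dose plus 60%-effect dose below 60 µM; inactive means the rest.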

How the values were obtained:
[1] = differentiation induction in ER-HoxA9 progenitors – cell-based, lysozyme-GFP, flow cytometry, Cherry Pick01, dose response (AID 651745); conditions: ER-HoxA9 myeloid progenitors, lysozyme-GFP differentiation, flow cytometry
[2] = system: ER-HoxA9 myeloid progenitors, lysozyme-GFP differentiation, flow cytometry; test: as above

O=C(NCc1ccccc1)C1=C[C@@H](c2csc3ccccc23)C[C@@H](OCc2ccc(CO)cc2)O1
percent GFP positive (differentiation) ([1]; at 4.37 µM (top of the series)): 1.2% (inactive)

C/C(N)=C(/C#N)C(=O)COC(=O)c1cc(C)n(-c2ccc(F)cc2)c1C
percent GFP positive (differentiation) ([1]; at 19.9 µM (top of the series)): 10.9% (inactive)

COC(=O)C1=C(c2cc3ccccc3s2)C[C@@H]2CC[C@H]1N2C(=O)NC1CCCCC1
percent GFP positive (differentiation) ([1]; at 13.2 µM (top of the series)): 4.3% (inactive)

COc1ccccc1C1N(c2ccc(Cl)cc2)C(=O)C2CCCN21 (centres undefined)
EC50 [2]: 6.47 µM

Cc1ccc(OCc2nnc(SCc3nc4ccccc4[nH]3)n2Cc2ccco2)cc1
percent GFP positive (differentiation) ([1]; at 19.9 µM (top of the series)): 3.4% (inactive)

N#CC(C#N)=c1ccc2c(c1)N1C(c3ccccc3)=CC(c3ccccc3)C3CCCCC31N=2 (centres undefined)
percent GFP positive (differentiation) ([1]; at 39.8 µM (top of the series)): 1% (inactive)

CCCCOc1ccc(OC(=O)Nc2cc(Cl)ccc2OC)cc1
percent GFP positive (differentiation) ([1]; at 13.2 µM (top of the series)): 2.55% (inactive)

Cc1cc(NC(=O)COC(=O)c2c(C)nn(Cc3ccccc3)c2Cl)no1
EC50 [2]: 4.44 µM

CCOC(=O)C1=C(CN2CCc3ccccc32)NC(=O)NC1c1cccc([N+](=O)[O-])c1 (centres undefined)
percent GFP positive (differentiation) ([1]; at 19.9 µM (top of the series)): 10.5% (inactive)

COc1ccc2ccccc2c1CNC(=O)CC1C(=O)NCCN1CC(C)C (centres undefined)
percent GFP positive (differentiation) ([1]; at 39.8 µM (top of the series)): 7% (inactive)

COc1ccccc1NC(=O)c1cccc(S(=O)(=O)N2CCN(c3ccccc3)CC2)c1
percent GFP positive (differentiation) ([1]; at 19.9 µM (top of the series)): 4.3% (inactive)

Cc1cccc(N2CCN(C(=O)c3ccc4c(c3)OCCO4)CC2)c1C
percent GFP positive (differentiation) ([1]; at 39.8 µM (top of the series)): 2.1% (inactive)

COc1ccc(NC2=C(NC(C)=O)C(=O)c3ccccc3C2=O)cc1
percent GFP positive (differentiation) ([1]; at 6.6 µM (top of the series)): 20.3% (inactive)

COc1ccc(-n2c(C)cc(/C=C3\SC(=S)N(Cc4ccco4)C3=O)c2C)cc1
percent GFP positive (differentiation) ([1]; at 19.9 µM (top of the series)): 7.7% (inactive)

CC(=O)c1c(N2CCOCC2)[nH]c(-c2ccccc2)nc1=S
percent GFP positive (differentiation) ([1]; at 39.8 µM (top of the series)): 5.35% (inactive)

CCOc1ccccc1Nc1nc2ccc(C)cc2n2cnnc12
percent GFP positive (differentiation) ([1]; at 39.8 µM (top of the series)): 1.4% (inactive)

COc1ccc(/C=C/c2cccc[n+]2C)c(O)c1
percent GFP positive (differentiation) ([1]; at 39.8 µM (top of the series)): 6.2% (inactive)

COc1ccc(NC(=S)N2CCC3CC2c2c(Cl)cccc23)c(OC)c1 (centres undefined)
percent GFP positive (differentiation) ([1]; at 39.8 µM (top of the series)): 0.6% (inactive)

Cc1cccn2cc(COc3ccc(-c4ccccc4)cc3)nc12
EC50 [2]: 2.24 µM

O[C@H]1C[C@H](c2ccc(Cl)cc2)N(Cc2cccs2)C[C@@H]1n1cc(C2CC2)nn1
EC50 [2]: 4.9 µM

CCCCn1c(N)c(N(CC(C)C)C(=O)Cc2ccc(S(=O)(=O)N3CCOCC3)s2)c(=O)[nH]c1=O
EC50 [2]: 20.2 µM

O=C(O)c1ccccc1N/N=C/c1c(Sc2nnnn2-c2ccccc2)nc2ccccn2c1=O
percent GFP positive (differentiation) ([1]; at 39.8 µM (top of the series)): 97.5% (inactive)

CC(=O)Nc1ccc(C2=CC(=O)C[C@H](c3ccc(Cl)cc3)C2)cc1
EC50 [2]: 24.7 µM

COc1cccc(NC(=O)[C@H](Cc2c[nH]c3ccccc23)NC(=O)[C@@H]2Cc3ccccc3CN2)c1
percent GFP positive (differentiation) ([1]; at 39.8 µM (top of the series)): 3.5% (inactive)

CN(Cc1ccc(Cl)c(Cl)c1)C(=O)C1=CC=CN2CCS(=O)(=O)N=C12
percent GFP positive (differentiation) ([1]; at 13.2 µM (top of the series)): 6.5% (inactive)

C#CC[N+](CC)(CC)CC#Cc1ccccc1
percent GFP positive (differentiation) ([1]; at 39.8 µM (top of the series)): 4.1% (inactive)

Cn1c(-c2ccccc2)c[n+]2c1-c1ccccc1C2
percent GFP positive (differentiation) ([1]; at 19.9 µM (top of the series)): 3.8% (inactive)

CCOC(=O)c1c(NC(=O)C(C)Sc2cccc[n+]2[O-])sc2c1CCN(Cc1ccccc1)C2 (centres undefined)
percent GFP positive (differentiation) ([1]; at 13.2 µM (top of the series)): 1.7% (inactive)

C=CCN(c1ccccc1OC)S(=O)(=O)c1ccc(Cl)c(C(=O)NCc2ccco2)c1
percent GFP positive (differentiation) ([1]; at 13.2 µM (top of the series)): 2.5% (inactive)

c1cc(SC2CCCCC2)cc(-c2nc3cnccn3c2NC2CCCCC2)c1
percent GFP positive (differentiation) ([1]; at 6.6 µM (top of the series)): 4.8% (inactive)

C/C(=C1/SC(N2CCCC2)=NC1=O)c1ccc(Br)cc1
EC50 [2]: 2.08 µM

CCCCN1C(N)=NC[C@@H]1Cc1ccc(O)cc1
percent GFP positive (differentiation) ([1]; at 39.8 µM (top of the series)): 3.4% (inactive)

Cc1c(N=C2NN=C(c3c[nH]c4ccccc34)CS2)c(=O)n(-c2ccccc2)n1C
percent GFP positive (differentiation) ([1]; at 39.8 µM (top of the series)): 5.55% (inactive)

CCS(=O)(=O)c1nc(S(=O)(=O)c2ccc(Cl)cc2)c(N2CCC3(CC2)OCCO3)s1
percent GFP positive (differentiation) ([1]; at 39.8 µM (top of the series)): 5.1% (inactive)
